Laboratory results: article PMC3792051, “Polyenylpyrrole Derivatives Inhibit NLRP3 Inflammasome Activation and Inflammatory Mediator Expression by Reducing Reactive Oxygen Species Production and Mitogen-Activated Protein Kinase Activation” (PLoS ONE, 2013)

Key:
RAW 264.7 cells = assay: AlamarBlue assay for cell viability (cytotoxicity); details: read-out: IC50 (cytotoxicity), RAW 264.7 macrophages, 24 h treatment, 6.25-100 µM tested
[1] = tested on: ATP-activated LPS-primed J774A.1 macrophages; assay: Intracellular ROS production (DCF fluorescence), ATP-induced; assay type: cell-based, murine
Protocol: Intracellular ROS production was measured by detecting the fluorescence intensity of the 2’, 7’-dichlorofluorescein, the oxidation product of 2’, 7’-dichlorofluorescein diacetate (Molecular Probes, Eugene, OR). […] In another, J774A.1 macrophages (5 × 10^5/ml; 0.1 ml) were incubated with LPS (1 µg/ml) for 6 h, then vehicle, compound 1h (20 µM), or DPI (25 µM) was added for 30 min. 2’, 7’-dichlorofluorescein diacetate (2 µM) was then added for 30 min before incubation with ATP (5 mM) for the indicated time; while, in another, the order of addition of compound1h/DPI and LPS was reversed. The fluorescence intensity of 2’, 7’-dichlorofluorescein was detected at an excitation wavelength of 485 nm and an emission wavelength of 530 nm on a microplate absorbance reader (Bio-Rad Laboratories, Inc).
In (A), J774A.1 macrophages (1 × 10^6/ml; 1 ml) were incubated with LPS (1 µg/ml) for 6 h, then with compound 1h (20 µM), the NADPH oxidase inhibitor DPI (25 µM), or DMSO (vehicle) for 30 min in the continued presence of LPS, then 2’,7’-dichlorofluorescein diacetate (2 µM) was added for 30 min, followed by ATP (5 mM) for the indicated time, then ROS levels were determined by measuring the mean fluorescence intensity (MFI) of the fluorophore carboxyl-DCF and expressing this value relative to that at time zero. In (B), J774A.1 macrophages (1 × 10^6/ml; 1 ml) were incubated with compound 1h (20 µM), DPI (25 µM), or DMSO (vehicle) for 30 min, then LPS (1 µg/ml) was added for 6 h; the cells were then incubated with 2’,7’-dichlorofluorescein diacetate (2 µM) for 30 min, then with ATP (5 mM) for the indicated time and ROS levels were measured by detection of the fluorescence intensity of the fluorophore carboxyl-DCF and expressed relative to that at time zero.

[2] = tested on: LPS-activated RAW 264.7 macrophages; assay: NO production inhibitory assay (Griess reaction); assay type: cell-based, murine; details: for ED50 (inhibition of LPS-induced NO production): RAW 264.7 macrophages, LPS 1 µg/ml, 24 h, Griess reaction; for NO production by LPS-activated cells: 2.5-40 µM, 30 min before and during LPS 1 µg/ml 24 h; for NO levels produced by non-activated cells: compound alone, no LPS (data not shown)
Protocol: RAW 264.7 cells seeded in 24-well plates at a density of 5 × 10^5 cells/ml (1 ml) were incubated for 24 h with or without LPS (1 µg/ml) in the absence or presence of the test samples, then NO production was measured indirectly by analysis of nitrite levels using the Griess reaction.
(§1) To investigate the inhibitory effect of compounds 1h, 1i, and 1n on the LPS-induced inflammatory response, NO levels in the supernatants of RAW 264.7 macrophages incubated with DMSO (vehicle) or compound 1h, 1i, or 1n for 30 min before, and during, incubation for 24 h with LPS (1 µg/ml) were measured by the Griess reaction. […] We next investigated their effect on the expression of iNOS, the NO producing enzyme, using Western blots.
(§2) Figure 2 Effect of polyenylpyrrole derivatives on the expression of inflammatory mediators in LPS-stimulated RAW 264.7 macrophages. In (A) and (C), the cells (5 × 10^5/ml; 1 ml) were incubated for 30 min with 2.5-40 µM compound 1h, 1i, or 1n or DMSO (vehicle), then LPS (1 µg/ml) was added and incubation continued for 24 h, then NO (A) or IL-6 or TNF-α (C) in the culture medium was assayed by the Griess reaction or ELISA, respectively. In (B), cells (5 × 10^5/ml; 1 ml) were pretreated for 30 min with 2.5-40 µM compound 1h or DMSO, then LPS (1 µg/ml) was added and incubation continued for 24 h, then expression of iNOS and COX-2 was measured by Western blotting. The fold increase is the intensity of the band of interest divided by that of the actin band normalized to the corresponding value for the 0 LPS/0 inhibitor control.

various cancer cells = tested on: various cancer cells; set-up: method as in PMID 16468746; details: cited from earlier work
in vitro = details: mouse
[3] = tested on: LPS-activated RAW 264.7 macrophages; assay: IL-6 and TNF-α secretion by ELISA; assay type: cell-based, murine; details: for IL-6 production by LPS-activated cells / TNF-α secretion by LPS-activated cells: RAW 264.7, 2.5-40 µM, LPS 1 µg/ml 24 h; for Background levels of IL-6 and TNF-α in non-stimulated macrophages: RAW 264.7, no LPS (data not shown)
Protocol: The effects of the test samples on IL-1β, TNF-α, and IL-6 production were measured by ELISA according to the manufacturer’s instructions. In brief, 50 µl of biotinylated antibody reagent and 50 µl of supernatant were added to a stripwell plate precoated with anti-mouse IL-1β, TNF-α, or IL-6 antibodies, which was then incubated at room temperature for 2 h. After washing the plate three times with washing buffer, 100 µl of diluted streptavidin-HRP concentrate was added to each well and the plate incubated at room temperature for 30 min. The washing process was repeated, then 100 µl of a premixed tetramethylbenzidine substrate solution was added to each well and the plate incubated at room temperature in the dark for 30 min. After addition of 100 µl of stop solution to each well, the absorbance at 450 nm of each well was measured on a microplate reader.
as §1, §2

[4] = tested on: LPS-activated RAW 264.7 macrophages; assay: iNOS and COX-2 expression by Western blot; assay type: cell-based, murine; details: 30 min pretreatment, LPS 24 h; for COX-2 expression / LPS-induced iNOS expression: 0-40 µM; for Concentration at which reduction of LPS-induced iNOS expression is significant: Western blot
Protocol: Cells were washed twice with ice-cold phosphate-buffered saline (PBS) and lysed on ice for 5 min with lysis buffer (20 mM Tris-HCl, pH 7.5, 150 mM NaCl, 1 mM Na 2EDTA, 1 mM EGTA, 1% Triton X-100, 2.5 mM sodium pyrophosphate, 1 mM beta-glycerophosphate, 1 mM Na 3VO4, 1 µg/ml of leupeptin, 1 mM PMSF, protease inhibitor cocktail). The lysate was then centrifuged at 12,000 x g at 4 °C for 10 min and the pellet discarded. Proteins in the supernatant were separated by SDS-PAGE and electrotransferred to a PVDF membrane (EMD Millipore Corporation), which was then blocked by incubation for 1 h at room temperature in blocking buffer [(5% nonfat milk in PBS containing 0.1% Tween 20 (PBST)], then incubated for 2 h at room temperature with the primary antibody diluted in blocking buffer. After three washes in PBST, the membrane was incubated for 1 h at room temperature with an appropriate HRP-conjugated secondary antibody diluted in blocking buffer and developed using an enhanced chemiluminescence Western blot detection system (EMD Millipore Corporation).
as §1, §2

[5] = tested on: LPS-activated RAW 264.7 macrophages; assay: Intracellular ROS production (DCF fluorescence), LPS-induced; assay type: cell-based, murine; details: RAW 264.7, 30 min pretreatment; compound 1h 20 µM, NAC 10 mM
Protocol: Intracellular ROS production was measured by detecting the fluorescence intensity of the 2’, 7’-dichlorofluorescein, the oxidation product of 2’, 7’-dichlorofluorescein diacetate (Molecular Probes, Eugene, OR). In one study, RAW 264.7 macrophages (5 × 10^5/ml; 0.1 ml) were incubated with vehicle, compound 1h (20 µM), or NAC (10 mM) for 30 min, then 2’, 7’-dichlorofluorescein diacetate (2 µM) was added for 30 min, then LPS was added for the indicated time. In another, J774A.1 macrophages (5 × 10^5/ml; 0.1 ml) were incubated with LPS (1 µg/ml) for 6 h, then vehicle, compound 1h (20 µM), or DPI (25 µM) was added for 30 min. 2’, 7’-dichlorofluorescein diacetate (2 µM) was then added for 30 min before incubation with ATP (5 mM) for the indicated time; while, in another, the order of addition of compound1h/DPI and LPS was reversed. The fluorescence intensity of 2’, 7’-dichlorofluorescein was detected at an excitation wavelength of 485 nm and an emission wavelength of 530 nm on a microplate absorbance reader (Bio-Rad Laboratories, Inc).
To test whether compound 1h exerted its anti-inflammatory effect on LPS-activated cells by downregulation of ROS production, intracellular ROS production in LPS-activated RAW 264.7 macrophages was measured.
Figure 5 Effect of compound 1h on ROS production and MAPK phosphorylation in LPS-activated macrophages. […]

## CCCCc1c(OC)cc(/C(C)=C/C=C/C=C/C=C/c2[nH]ccc2Cl)oc1=O [1g]
RAW 264.7 cells
  IC50: < 10 µM

## c1ccc2c(c1)[I+]c1ccccc1-2 [DPI, diphenylene iodonium, reference compound]
[1]; J774A.1, LPS 6 h, then compound 1h 20 µM or DPI 25 µM 30 min, ATP 5 mM 0-40 min
  ATP-induced ROS production, compound added after LPS priming: inhibited both processes
[1]; J774A.1, compound 1h 20 µM or DPI 25 µM 30 min, then LPS 6 h, then ATP 5 mM
  ATP-induced ROS production, compound added 30 min before LPS priming: inhibited both processes

## COc1cc(/C=C/C=C/C=C/C=C/c2sccc2Cl)oc(=O)c1 [1j]
[2]
  ED50 (inhibition of LPS-induced NO production): 29 ± 6 µM
RAW 264.7 cells
  IC50: > 100 µM

## CCCCc1c(OC)cc(/C=C/C=C/C=C/C=C/c2[nH]ccc2Cl)oc1=O [1c]
RAW 264.7 cells
  IC50: < 10 µM

## COc1cc(/C(C)=C/C=C/C=C/C=C/c2[nH]ccc2Cl)oc(=O)c1C [compound 1e, 12E-isorumbrin]
Various cancer cells
  Cytotoxicity for various cancer cells: shown to be cytotoxic for various cancer cells
In vitro
  IC50: < 10 µM

## CC\C(=C/C=C/C=C/C=C/c1[nH]ccc1Cl)c1cc(OC)c(C)c(=O)o1 [1f]
RAW 264.7 cells
  IC50: < 10 µM

## COc1cc(/C=C/C=C/C=C/C=C/c2sccc2Cl)oc(=O)c1C [1k]
[2]
  ED50 (inhibition of LPS-induced NO production): 18 ± 2 µM
RAW 264.7 cells
  IC50: > 100 µM

## Cc1c(O)cc(/C=C/C=C/C=C/C=C/c2[nH]ccc2Cl)oc1=O [compound 1i]
[3]
  IL-6 production by LPS-activated cells: significantly decreased IL-6 production by LPS-activated cells in a dose-dependent manner
  TNF-α secretion by LPS-activated cells: only slightly and non-significantly reduced
  Background levels of IL-6 and TNF-α in non-stimulated macrophages: none of the three compounds altered background levels of IL-6 and TNF-α
[4]
  COX-2 expression: did not affect expression of COX-2
  LPS-induced iNOS expression: reduced LPS-induced iNOS expression
  Concentration at which reduction of LPS-induced iNOS expression is significant: 40 µM
[2]
  NO production by LPS-activated cells: decreased NO production by LPS-activated cells in a dose-dependent manner
  ED50 (inhibition of LPS-induced NO production): 16 ± 2 µM
  NO levels produced by non-activated cells: did not alter NO levels produced by non-activated cells
RAW 264.7 cells
  IC50: > 100 µM

## COc1cc(/C=C/C=C/C=C/C=C/c2[nH]ccc2Cl)oc(=O)c1C [compound 1b, auxarconjugatin A]
In vitro
  IC50: < 10 µM

## COc1cc(/C=C/C=C/C=C/C=C/c2ccccc2Cl)oc(=O)c1C [1l]
[2]
  ED50 (inhibition of LPS-induced NO production): 18 ± 3 µM
RAW 264.7 cells
  IC50: > 100 µM

## COc1cc(/C=C/C=C/C=C/C=C/c2c(Cl)ccn2S(C)(=O)=O)oc(=O)c1C [1n]
[3]
  IL-6 production by LPS-activated cells: significantly decreased IL-6 production by LPS-activated cells in a dose-dependent manner
  TNF-α secretion by LPS-activated cells: only slightly and non-significantly reduced
  Background levels of IL-6 and TNF-α in non-stimulated macrophages: none of the three compounds altered background levels of IL-6 and TNF-α
[4]
  COX-2 expression: did not affect expression of COX-2
  LPS-induced iNOS expression: reduced LPS-induced iNOS expression
  Concentration at which reduction of LPS-induced iNOS expression is significant: 40 µM
[2]
  NO production by LPS-activated cells: decreased NO production by LPS-activated cells in a dose-dependent manner
  ED50 (inhibition of LPS-induced NO production): 17 ± 2 µM
  NO levels produced by non-activated cells: did not alter NO levels produced by non-activated cells
RAW 264.7 cells
  IC50: > 100 µM

## COc1cc(/C(C)=C/C=C/C=C/C=C/c2[nH]ccc2Cl)oc(=O)c1 [1d]
RAW 264.7 cells
  IC50: < 10 µM

## COc1cc(/C=C/C=C/C=C/C=C/c2[nH]ccc2Cl)oc(=O)c1 [1a]
RAW 264.7 cells
  IC50: < 10 µM

## CC(=O)N[C@@H](CS)C(=O)O [NAC, N-acetyl cysteine, reference compound]
[5]
  LPS-stimulated ROS production: reduced ROS production

## COc1cc(/C=C/C=C/C=C/C=C/c2cccc(Cl)c2)oc(=O)c1C [1m]
[2]
  ED50 (inhibition of LPS-induced NO production): 26 ± 3 µM
RAW 264.7 cells
  IC50: > 100 µM
